Test results published in patent US20220079910A1, “Cancer Treatment Useing Docetaxel by Controlling Peak Plasma Levels” (Modra Pharmaceuticals B.V., priority 2018, published 2022).
Read-outs that look alike come from different tables or passages of the source.

Experiments:
[1] = IV docetaxel q3w AUC in mCRPC patients vs other tumors (De Vries Schultink et al.); details: human, in vivo, weekly equivalent, read-out: weekly AUC of IV docetaxel in mCRPC patients (q3w AUC divided by 3)
Protocol: The target minimum AUC threshold in mCRPC patients is highlighted and ranges from about 600-800 h*ng/mL.

[2] = system: metastasized castration-resistant prostate cancer (mCRPC); assay: Phase IB/IIA study in mCRPC (M17DOC): PSA response, radiological response, treatment cycles; type: in vivo, human; details: FIG. 3 / FIG. 6; target range 500-1500 h*ng/mL (FIG. 6)
Description: In FIG. 8 a plot is shown of the number of treatment cycles (with a maximum of 30) in a multicenter clinical phase IB study in mCRPC (M17DOC) of evaluable patients. Patients were scored, as PSA progression (black bars); PSA equal to baseline or decline (<50%) (dark grey bars); PSA response (decline ≥50%) (medium grey bars); clinical response (pain reduction) up to the maximum treatment period permitted in the protocol of 30 weeks (light grey bars).
(§4) A multicenter clinical phase IB/IIA study was conducted in mCRPC (M17DOC), wherein ModraDoc006, an oral docetaxel formulation was combined with ritonavir (ModraDoc006/r), in metastasized castration-resistant prostate cancer (mCRPC).
(§5) The study included patients diagnosed with metastasized castration-resistant prostate cancer (mCRPC), dosed in a bi-daily once weekly (BIDW) dosing schedule at 4 dose levels (see table below).
This study included 20 evaluable patients diagnosed with metastasized castration-resistant prostate cancer (mCRPC), dosed in a bi-daily once weekly (BIDW) dosing schedule at 4 dose levels (see table).

[3] = cited from earlier work
[4] = system: cancer patients; assay: Phase I trial N10BOM: treatment duration, SAEs/DLTs, best response; type: in vivo, human; details: n=64
Protocol: (§1) We treated in a phase I trial (N10BOM) cancer patients (n=64) with oral docetaxel in combination with ritonavir. The dose was administered bi-daily once per week continuously.
Treatment duration of 8 patients was from 19 up to 55 weeks. These were patients with the following cancers. Head and neck cancer (n=2; PR), non-small cell lung (n=4; SD), colorectal (n=1; SD) and giant cell neuroendocrine carcinoma (n=1; SD). The docetaxel exposure in these patients was:
(§2) The docetaxel exposure in these patients was:
Twentyfive patients had SD or PR as best treatment response.

[5] = system: cancer patients; assay: Phase I trial N07DOW: treatment duration, SAEs/DLTs, best response; type: in vivo, human; details: n=100
Protocol: (§3) We treated in a phase I trial (N07DOW) cancer patients (n=100) with oral docetaxel in combination with ritonavir. The dose was administered on one day (single dose), once per week. Data presented as mean±standard deviation. If available, kinetic data of 2 cycles per patient were used.
Treatment duration of 19 patients was from 19 up to 72 weeks. These were patients with the following cancers. Head and neck (n=1), non-small cell lung (n=8), anal (n=1), primary unknown (n=3), ovarian (n=1), esophageal (n=1), urothelial cell (n=2), leiomyosarcoma (n=1) and neuroendocrine lung carcinoma (n=1). The docetaxel exposure in these patients was:
as §2
Fiftytwo patients had SD (stable disease) (n=42) or PR (partial response) (n=10) as best treatment response.

[6] = in vivo
Protocol: The described method was successfully applied in clinical studies with oral administration of docetaxel in combination with ritonavir.
Our next step was to investigate this oral treatment schedule in patients with metastatic Castration Resistant Prostate Cancer (mCRPC) in a phase IB/.IIA trial.
as §4, §5

[7] = Weekly intravenous docetaxel infusion: AUC and CMAX (Baker et al.); type: in vivo, human; details: IV 35 mg/m2 in 0.5 h vs oral in patients with solid tumors (not prostate)
[8] = Phase I trial N07DOW: docetaxel plasma exposure after oral docetaxel with ritonavir; type: in vivo; details: human, mean±SD; for AUC(0-t): read-out: docetaxel AUC0-48 h
Protocol: as §3

[9] = Phase I trial N10BOM: docetaxel plasma exposure after oral docetaxel with ritonavir; type: in vivo; details: human; for AUC(0-t): read-out: docetaxel AUC0-48 h
Protocol: as §1

[10] = weekly docetaxel 35 mg/m2 as 0.5 h intravenous infusion; cited from earlier work
[11] = oral, 10 patients with SAEs and DLTs (≥grade 3)
[12] = oral, 25 patients with SD or PR as best treatment response
[13] = po, oral docetaxel + ritonavir bi-daily once per week, 8 patients with treatment duration 19 up to 55 weeks

AUC [1]: ~600 ng·h/mL
docetaxel clearance in mCRPC patient population vs patients with other solid tumors [6]: higher clearance
CMAX after intravenous administration relative to oral ModraDoc006/r 30-20/100-100 [7]: ten-fold higher
AUC(0-t) ([8]; oral, 52 patients with SD or PR as best treatment response): 1080 ± 1020 ng·h/mL
Cmax ([8]; oral, 52 patients with SD or PR as best treatment response, read-out: docetaxel CMAX): 197 ± 186 ng/mL
AUC(0-t) ([8]; po, oral docetaxel + ritonavir, single dose once per week, 19 patients with treatment duration 19 up to 72 weeks): 803 ± 634 ng·h/mL
Cmax ([8]; po, oral docetaxel + ritonavir, single dose once per week, 19 patients with treatment duration 19 up to 72 weeks, read-out: docetaxel CMAX (peak)): 148 ± 113 ng/mL
Cmax [9, 12]: 140 ± 83 ng/mL
AUC(0-t) [9, 12]: 1240 ± 702 ng·h/mL
Cmax [9, 13]: 143 ± 67 ng/mL
AUC(0-t) [9, 13]: 1220 ± 620 ng·h/mL
SMILES: CC(=O)O[C@@]12CO[C@@H]1C[C@H](O)[C@@]1(C)C(=O)[C@H](O)C3=C(C)[C@@H](OC(=O)[C@H](O)[C@@H](NC(=O)OC(C)(C)C)c4ccccc4)C[C@@](O)([C@@H](OC(=O)c4ccccc4)[C@H]21)C3(C)C [docetaxel]
length of treatment (number of cycles) in patients in a target docetaxel AUC range [2]: trending longer
ratio of AUCs for IV docetaxel in mCRPC patients vs other tumors ([3]; 1820/3300): 55%
q3w AUC of IV docetaxel in mCRPC patients ([3]; IV, every three weeks): 1820 ng·h/mL
patients with SAEs and DLTs (possible, probable, definite; ≥grade 3) [4]: 10 patients
patients with SD or PR as best treatment response [4]: Twentyfive
patients with PR (partial response) as best treatment response [5]: 10 patients
patients with SAEs and DLTs (possible, probable, definite; ≥grade 3) [5]: 15 patients
patients with SD (stable disease) as best treatment response [5]: 42 patients
patients with SD or PR as best treatment response [5]: Fiftytwo
AUC(0-t) ([8]; oral, 15 patients with SAEs and DLTs (≥grade 3)): 2340 ± 1450 ng·h/mL
Cmax ([8]; oral, 15 patients with SAEs and DLTs (≥grade 3), read-out: docetaxel CMAX): 351 ± 244 ng/mL
Cmax [9, 11]: 175 ± 117 ng/mL
AUC(0-t) [9, 11]: 1810 ± 1260 ng·h/mL
AUC [10]: 1480 ± 410 ng·h/mL
